Key:
[1] = target: Neuronal acetylcholine receptor subunit alpha-7 (Homo sapiens, UniProt P36544); assay: Binding affinity towards human nicotinic acetylcholine receptor alpha 7 expressed in GH4C1 cell using [3H]methyllycaconitine; format: cell-based, GH4-C1
[2] = target: Serotonin 3 (5-HT3) receptor; assay: Binding affinity for human 5-hydroxytryptamine 3 serotonin membrane receptor using [3H]GR-65630
[3] = target: Serotonin 3 (5-HT3) receptor; assay: Binding affinity towards human 5-hydroxytryptamine 3 serotonin membrane receptor using [3H]GR-65630 at 10 uM

Chain of Neuronal acetylcholine receptor subunit alpha-7 (P36544 whole entry): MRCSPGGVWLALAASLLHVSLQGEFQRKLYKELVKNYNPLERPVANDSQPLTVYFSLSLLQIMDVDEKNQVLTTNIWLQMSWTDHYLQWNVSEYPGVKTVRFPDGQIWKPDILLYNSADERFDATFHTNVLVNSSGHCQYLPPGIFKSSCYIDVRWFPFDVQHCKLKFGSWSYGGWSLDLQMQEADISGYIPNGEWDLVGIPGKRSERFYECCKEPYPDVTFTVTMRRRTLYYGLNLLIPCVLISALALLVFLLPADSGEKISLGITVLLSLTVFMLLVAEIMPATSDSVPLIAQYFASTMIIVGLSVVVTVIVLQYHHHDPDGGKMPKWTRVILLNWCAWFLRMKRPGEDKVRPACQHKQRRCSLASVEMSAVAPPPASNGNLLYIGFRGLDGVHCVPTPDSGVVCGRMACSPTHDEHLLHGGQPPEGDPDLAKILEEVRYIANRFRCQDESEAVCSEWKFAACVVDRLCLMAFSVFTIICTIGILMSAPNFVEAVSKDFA

Row | SMILES | Ki [1] [nM] | Ki [2] [nM] | inhibition [3] [%]
1 | c1ccc(-c2cnc3c(c2)C[C@@]2(CN4CCC2CC4)O3)cc1 | 3.1 | 73 | –
2 | O=C(NC1CN2CCC1CC2)c1ccc(-c2ccccn2)s1 (stereo not given) | 6.9 | – | 28
3 | O=C(N[C@@H]1CN2CCC1CC2)c1ccc(-c2ccccc2)s1 | 26.9 | 1550 | –
4 | O=C(NC1CN2CCC1CC2)c1ccc(-c2cccs2)s1 (stereo not given) | 1.1 | 1040 | –
5 | O=C1NC[C@]2(CN3CCC2CC3)O1 | – | – | 2.5
6 | O=C(N[C@H]1CN2CCC1CC2)c1ccc(-c2ccccc2)s1 (racemic) | 3.4 | 2020 | –
7 | O=C(NC1CN2CCC1CC2)c1ccc(-c2ccccc2)s1 (stereo not given) | 3.4 | 2020 | –
8 | CC(=O)O.O=C(N[C@H]1CN2CCC1CC2)c1ccc(-c2ccccc2)s1 | 1.8 | – | 24
9 | COc1ccccc1-c1ccc(C(=O)NC2CN3CCC2CC3)s1 (stereo not given) | 268 | – | 27
10 | c1cncc(CNc2cnc3c(c2)C[C@@]2(CN4CCC2CC4)O3)c1 | – | 2220 | –
11 | CCN1C[C@]2(COC(=O)c3ccccc3N3C(=O)C[C@H](C)C3=O)CC[C@H](OC)[C@@]34[C@@H]5C[C@H]6[C@H](OC)[C@@H]5[C@](O)(C[C@@H]6OC)[C@](O)([C@@H](OC)[C@H]23)[C@@H]14 [METHYLLYCACONITINE] | 7.3 | – | 16.5
12 | O=C(N[C@H]1CN2CCC1CC2)c1ccc(-c2ccccn2)s1 | 1.3 | – | 15.5
13 | O=C(NC1CN2CCC1CC2)c1csc(-c2ccccc2)c1 (stereo not given) | 16.7 | 409 | –
14 | O=C(NC1CN2CCC1CC2)c1ccc(-c2ccccc2Cl)s1 (stereo not given) | 525 | – | 45
15 | O=C(NC1CN2CCC1CC2)c1csc(-c2ccccc2)n1 (stereo not given) | 121 | 665 | –
16 | O=C(NC1CN2CCC1CC2)c1cc(-c2ccccc2)sn1 (stereo not given) | 4.1 | – | 28
